In patent publication US20160310505A1, “PROSTAMIDES FOR ENHANCEMENT OF LEPTIN PRODUCTION” (Allergan, Inc., priority 2013, published 2016):
Entries after “also recorded” stand apart in the source; their conditions may differ.

How the values were obtained:
Leptin = assay: Serum leptin levels by luminex assay in male rats on a cafeteria diet; assay type: in vivo
Protocol: In FIG. 1, bimatoprost was applied topically once per day for 6 months to rats. […] FIG. 2 describes the systemic exposure (topically applied) of bimatoprost by measuring blood levels of the compound after treatment. […] The in vivo action of bimatoprost is likely a dual mechanism to inhibit food intake and suppress replenishment of fat cells during normal turnover. […] Blood was drawn every 2 weeks and the serum was analyzed for leptin levels by luminex assay. […] A cafeteria diet is a high sugar and fat diet with typical “junk food”: […]

[1] = Once a day topical application to rats for six months (subcutaneous fat, body weight); assay type: in vivo; conditions: for subcutaneous fat: topical once a day, six months, ~10% body surface coverage; for body weight (FIG. 2): topical treatment
From the text: Bimatoprost (AGN 192024) is a synthetic prostamide which has been used in intraocular pressure lowering therapeutics such as LUMIGAN® 0.03, LUMIGAN® 0.01 and GANFORT®. […] In FIG. 1, bimatoprost was applied topically once per day for 6 months to rats. […] FIG. 2 describes the systemic exposure (topically applied) of bimatoprost by measuring blood levels of the compound after treatment. […] The in vivo action of bimatoprost is likely a dual mechanism to inhibit food intake and suppress replenishment of fat cells during normal turnover. […] Blood was drawn every 2 weeks and the serum was analyzed for leptin levels by luminex assay. […] A cafeteria diet is a high sugar and fat diet with typical “junk food”: […]

[2] = Patient use examples (transdermal patch or topical gel); assay type: in vivo, human
From the text: A person who is morbidly obese applies a bimatoprost transdermal skin patch on their arm, which uniformly releases a 5% w/w bimatoprost formulation over a thirty day period. […] The patient loses 6 pounds more than they would have otherwise lost without using the bimatoprost transdermal skin patch. A person applies a 3% w/w bimatoprost gel to their skin once a day. […] A person with elevated blood pressure has been determined by doctors to have prediabetes. In addition to being on a low fat, low sugar diet, the patient uses a transdermal bimatoprost patch which releases a 3% w/w bimatoprost formulation through the dermis and into the blood stream. […] A person is diagnosed with non-alcoholic fatty liver. The patient applies a transdermal bimatoprost patch which releases a 2% w/w bimatoprost formulation. […] A healthy person in an effort to lose weight is on a low fat diet. In order to suppress their appetite, the person applies a bimatoprost transdermal patch which continually releases 1% w/w bimatoprost for 30 days.

pre-adipocyte = assay: Pre-adipocyte differentiation; assay type: cell-based
human pre-adipocytes = assay: Leptin production in human pre-adipocytes; assay type: cell-based; conditions: 1 μM, 8 days, vehicle DMSO
Protocol: Vehicle is DMSO, bimatoprost treatment at 1 μM. Stimulation of leptin over 8-days of bimatoprost treatment; In FIG. 1, bimatoprost was applied topically once per day for 6 months to rats. […] FIG. 2 describes the systemic exposure (topically applied) of bimatoprost by measuring blood levels of the compound after treatment. […] The in vivo action of bimatoprost is likely a dual mechanism to inhibit food intake and suppress replenishment of fat cells during normal turnover. […] Blood was drawn every 2 weeks and the serum was analyzed for leptin levels by luminex assay. […] A cafeteria diet is a high sugar and fat diet with typical “junk food”: […]

[3] = Cafeteria diet induced fatty liver in rats, liver histology; assay type: in vivo; conditions: cafeteria diet 10 weeks
From the text: Rats were fed the cafeteria diet for 10 weeks and administered bimatoprost daily. At the end of 10 weeks, livers were resected and examined by histology. […] This has important consequences in the potential treatment of non-alcoholic fatty liver disease (NAFLD).

[4] = Example 1: transdermal skin patch, 5% w/w, thirty days
[5] = Example 3: prediabetes patient, transdermal patch, 3% w/w
[6] = Example 5: transdermal patch, 1% w/w, 30 days

CCNC(=O)CCC/C=C\C[C@@H]1[C@@H](/C=C/[C@@H](O)CCc2ccccc2)[C@H](O)C[C@@H]1O [bimatoprost, Bimatoprost]
serum leptin levels (Leptin; male rats on cafeteria diet, 0.3% bimatoprost in BSHG formulation topical daily, p<0.01, 2-way ANOVA): elevated levels of Leptin | leptin levels (FIG. 4) (Leptin; rats on a cafeteria diet, topical daily): elevated leptin levels | subcutaneous fat at sites distal to the application site (FIG. 1) ([1]; 3% w/v bimatoprost vs vehicle): subcutaneous fat reduction at sites distal to the application site | subcutaneous fat [1]: substantial local subcutaneous fat reduction, as well as reduction at adjunct and distal sites | subcutaneous fat ([1]; listed as Bimatoprost): subcutaneous fat loss at sites distant from the application site | body weight (FIG. 2) [1]: reduction in body weight | body weight (FIG. 2) ([1]; listed as Bimatoprost): reduction in weight over time | leptin levels ([2]; Example 1: morbidly obese person, transdermal skin patch, 5% w/w, thirty days): leptin levels increase | additional weight lost versus no patch [2, 4]: 6 pounds | appetite [2, 4]: suppressed appetite | leptin levels ([2]; Example 2: 3% w/w gel on skin once a day, after several days): elevated leptin levels | appetite ([2]; Example 2: 3% w/w gel once a day): suppresses appetite | body weight ([2]; Example 2: 3% w/w gel once a day, sixty day period): maintains their weight | appetite [2, 5]: reduction in appetite | blood leptin levels [2, 5]: immediate increase in blood leptin levels | body weight [2, 5]: weight loss | lipidosis in the liver ([2]; Example 4: non-alcoholic fatty liver patient, transdermal patch, 2% w/w): reduction in lipidosis in the liver | leptin levels ([2]; Example 5: healthy female on low fat diet, transdermal patch, 1% w/w, 30 days): leptin levels rise | appetite [2, 6]: suppression of their appetite | body weight [2, 6]: greater weight loss | differentiation of pre-adipocytes (pre-adipocyte): inhibit differentiation | leptin production (FIG. 3) (human pre-adipocytes): increases Leptin production; also recorded: increase in leptin production | liver lipidosis ([3]; 0.3% bimatoprost formulation daily): reduced lipidosis as compared to the control | liver lipidosis ([3]; 1% bimatoprost formulation daily): reduced lipidosis as compared to the control | cafeteria diet induced fatty liver changes (FIG. 5) ([3]; topical daily): dose-dependently decreases cafeteria diet induced fatty liver changes; also recorded: inhibited cafeteria diet induced fatty liver disease
